Data: US4766110A, “Novel complex amido and imido derivatives of carboxyalkyl peptides” (priority 1986, dated 1988)
“Also recorded” adds a separate entry of the source. Blank lines part the entries; values can stand above or below the compound they belong to.

How the values were obtained:
[1] = target: T1, human plasma angiotensin converting enzyme (Homo sapiens, UniProt P12821); test: In vitro assay of inhibition of angiotensin converting enzyme; format: biochemical; conditions: [3H]benzoyl-Gly-His-Leu 80 nM, pH 8.0, 37° C., 15 minutes, I50 approximates Ki
T1 construct: partially-purified human plasma angiotensin converting enzyme; from tissue; host or cells: human plasma
Protocol: Compounds of this invention were assayed through the following protocol: 25 microliters of buffer (0.05M Hepes buffer, pH 8.0, plus 0.1M NaCl and 0.75M Na2 SO4) or 25 microliters of an inhibitor in buffer was added to the bottom of a 7 ml liquid scintillation vial. To this was added 100 microliters of buffered substrate [S], [^3 H]benzoyl-Gly-His-Leu, 80 nM (25 Ci/mmole). The reaction was started by adding 100 microliters of partially-purified human plasma angiotensin converting enzyme, or 100 microliters of buffer alone. The concentration of enzyme [E] used was that required to hydrolyze 8-12% of substrate when incubated at 37° C. for 15 minutes. The scintillation vials and their contents were incubated at 37° C. for 15 minutes, and the reactions were stopped by adding 200 microliters of 0.5M HCl to each vial. The radioactive reaction product, [^3 H]benzoyl-Gly(hippuric acid), was separated from unhydrolyzed substrate by adding and mixing (by inversion) 3 ml of Ventrex Cocktail No. 1 (Ventrex Laboratories, Inc., Portland, Maine), a fluid disclosed in copending U.S. patent application Ser. No. 184,653, filed Sept. 6, 1980. Extractable ^3 H was quantified by liquid scintillation counting. Substrate, in c.p.m., was quantified by scintillation counting of a vial containing 100 μl of buffered substrate in 5 ml of RIAfluor (New England Nuclear). The reaction mixture containing al constituents except for inhibitor was termed the control (C). The reaction mixture lacking enzyme and inhibitor was called the blank (B). Reaction mixtures containing inhibitor (varied over the range of 10^-4 -10^-12 M) were called the test (T) reactions. Under the conditions of this assay, the reaction obeys first order enzyme kinetics, thus the concentration of inhibitor required to inhibit the rate of hydrolysis by half (I50) approximates the Ki value. The results were estimated by use of the formula: [formula] where C=control c.p.m.; B=blank c.p.m.; [S]=substrate c.p.m. The factor 100 converts fractional substrate utilization into percentage utilization,and 1/15 minute corrects to percentage substrate utilization/minute. Thus, [E] is enzyme activity in percentage substrate utilization/minute. By substituting T for C, hydrolysis rates are computed for the test reaction mixtures. By comparing a given test rate against the control rate, the degree of inhibition can be computed.

[2] = system: mean arterial blood pressure response to angiotensin I; test: Intravenous effectiveness: blood pressure response to angiotensin I in anesthetized rats; format: in vivo; conditions: for Blood Pressure Response to 400 ng/kg of Angiotensin I: rat, 0.5 μmole/kg IV
Protocol: Rats (190-290 g body weight) were fasted overnight and then anesthetized with intraperitoneal pentobarbital, 50-60 mg/kg. Tracheostomy was performed and the animals were ventilated mechanically. A cannula was inserted into a femoral vein for injection of angiotensin I, and a second cannula was inserted into a common carotid artery for direct measurement of arterial blood pressure. Heparin, 1,000 units, was injected via the femoral vein to prevent coagulation. Blood pressure was measured with a pressure transducer connected to a polygraph. The rats were injected with […] of angiotensin I in 20 μl of 0.9 g % NaCl, an amount of angiotensin I sufficient to raise mean arterial blood pressure by approximately 48 mm Hg.
After the responsiveness of a given rat to angiotensin I was established, the named compound at 0.5 μmole/kg (drug dissolved in 15 microliters of 0.9% NaCl) was given intravenously. At time intervals, the effects of 400 ng/kg of angiotensin I on mean arterial blood pressure were tested. Results are shown below:
Experiments were carried out using rats according to Example 30.

[3] = Loss of activity of aqueous SQ14225 solution on standing; format: physicochemical; conditions: 1 mg per ml, pH of about 8, ambient conditions
[4] = cited from earlier work

T1 sequence (P12821 30-1232 limits assumed): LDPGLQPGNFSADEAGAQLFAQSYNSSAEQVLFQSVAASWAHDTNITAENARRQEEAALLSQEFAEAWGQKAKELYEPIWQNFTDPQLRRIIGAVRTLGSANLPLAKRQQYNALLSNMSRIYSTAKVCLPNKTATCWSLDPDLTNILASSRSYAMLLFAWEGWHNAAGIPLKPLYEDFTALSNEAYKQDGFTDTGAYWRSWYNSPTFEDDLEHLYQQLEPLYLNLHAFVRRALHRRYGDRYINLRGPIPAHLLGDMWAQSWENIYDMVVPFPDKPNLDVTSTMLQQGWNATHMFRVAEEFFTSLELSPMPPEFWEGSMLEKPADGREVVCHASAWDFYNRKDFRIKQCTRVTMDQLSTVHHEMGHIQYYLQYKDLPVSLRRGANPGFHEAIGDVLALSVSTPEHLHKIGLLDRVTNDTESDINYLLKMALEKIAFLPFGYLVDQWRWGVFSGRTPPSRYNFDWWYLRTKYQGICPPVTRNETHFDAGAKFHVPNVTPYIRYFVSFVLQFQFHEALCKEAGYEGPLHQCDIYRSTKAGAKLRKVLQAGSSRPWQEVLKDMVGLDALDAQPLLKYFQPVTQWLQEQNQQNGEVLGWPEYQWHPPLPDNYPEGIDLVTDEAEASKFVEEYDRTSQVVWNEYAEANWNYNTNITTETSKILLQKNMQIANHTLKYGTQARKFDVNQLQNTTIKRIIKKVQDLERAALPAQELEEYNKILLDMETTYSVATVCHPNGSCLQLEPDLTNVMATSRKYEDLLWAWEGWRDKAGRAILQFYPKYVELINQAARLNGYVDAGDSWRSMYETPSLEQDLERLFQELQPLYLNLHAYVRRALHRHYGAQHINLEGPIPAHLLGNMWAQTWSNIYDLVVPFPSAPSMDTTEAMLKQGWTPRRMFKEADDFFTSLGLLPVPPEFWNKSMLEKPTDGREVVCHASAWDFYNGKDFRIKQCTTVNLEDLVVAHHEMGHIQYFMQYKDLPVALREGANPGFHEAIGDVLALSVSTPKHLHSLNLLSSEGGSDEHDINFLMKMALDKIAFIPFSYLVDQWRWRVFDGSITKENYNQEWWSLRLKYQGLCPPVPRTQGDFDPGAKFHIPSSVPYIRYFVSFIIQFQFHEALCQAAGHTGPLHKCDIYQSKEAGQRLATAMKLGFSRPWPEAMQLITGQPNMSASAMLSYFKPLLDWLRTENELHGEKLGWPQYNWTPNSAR

- IC50 [1]: 5.2 nM
- IC50 ([1]; listed as N-[L-1-carboxy-3-(carboanilide)propyl]-D,L-Ala-L-Pro): ~1 nM
SMILES: CC(N[C@@H](CCC(=O)Nc1ccccc1)C(=O)O)C(=O)N1CCC[C@H]1C(=O)O (stereo partly drawn) [Example 26, N-[L-1-carboxy-3-(carbo-anilide)propyl]-Alanyl-L-Proline]
- Blood Pressure Response to 400 ng/kg of Angiotensin I ([2]; 5 min after administration): 37 % of Control
- Blood Pressure Response to 400 ng/kg of Angiotensin I ([2]; 10 min after administration): 37 % of Control
- Blood Pressure Response to 400 ng/kg of Angiotensin I ([2]; 15 min after administration): 40 % of Control
- Blood Pressure Response to 400 ng/kg of Angiotensin I ([2]; 20 min after administration): 40 % of Control
- Blood Pressure Response to 400 ng/kg of Angiotensin I ([2]; 25 min after administration): 40 % of Control
- Blood Pressure Response to 400 ng/kg of Angiotensin I ([2]; 30 min after administration): 35 % of Control
- Blood Pressure Response to 400 ng/kg of Angiotensin I ([2]; 40 min after administration): 35 % of Control
- Blood Pressure Response to 400 ng/kg of Angiotensin I ([2]; 50 min after administration): 46 % of Control
- Blood Pressure Response to 400 ng/kg of Angiotensin I ([2]; 60 min after administration): 46 % of Control
- Blood Pressure Response to 400 ng/kg of Angiotensin I ([2]; 70 min after administration): 48 % of Control
- Blood Pressure Response to 400 ng/kg of Angiotensin I ([2]; 80 min after administration): 52 % of Control
- Blood Pressure Response to 400 ng/kg of Angiotensin I ([2]; 90 min after administration): 54 % of Control
- Blood Pressure Response to 400 ng/kg of Angiotensin I ([2]; 102 min after administration): 62.5 % of Control
- Blood Pressure Response to 400 ng/kg of Angiotensin I ([2]; +1 min after administration): 42 % of Control

- IC50 [1]: 0.23 nM
- IC50 ([1]; listed as N-[L-1-carboxy-3-(carbo-4-iodoanilide)propyl]-D,L-Ala-L-Pro): ~1 nM
SMILES: CC(N[C@@H](CCC(=O)Nc1ccc(I)cc1)C(=O)O)C(=O)N1CCC[C@H]1C(=O)O (stereo partly drawn) [Example 27, N-[L-1-carboxy-3-(carbo-4-iodo-anilide)propyl]-Alanyl-L-Proline]
- increase in intravenous effectiveness on removal of iodine ([2]; de-iodo compound versus the 4-iodoanilide): three-fold
- Blood Pressure Response to 400 ng/kg of Angiotensin I ([2]; 5 min after administration): 42 % of Control
- Blood Pressure Response to 400 ng/kg of Angiotensin I ([2]; 10 min after administration): 46 % of Control
- Blood Pressure Response to 400 ng/kg of Angiotensin I ([2]; 15 min after administration): 52 % of Control
- Blood Pressure Response to 400 ng/kg of Angiotensin I ([2]; 20 min after administration): 60 % of Control
- Blood Pressure Response to 400 ng/kg of Angiotensin I ([2]; 25 min after administration): 67 % of Control
- Blood Pressure Response to 400 ng/kg of Angiotensin I ([2]; 30 min after administration): 71 % of Control
- Blood Pressure Response to 400 ng/kg of Angiotensin I ([2]; 35 min after administration): 71 % of Control
- Blood Pressure Response to 400 ng/kg of Angiotensin I ([2]; 50 min after administration): 83 % of Control
- Blood Pressure Response to 400 ng/kg of Angiotensin I ([2]; 60 min after administration): 92 % of Control
- Blood Pressure Response to 400 ng/kg of Angiotensin I ([2]; 70 min after administration): 100 % of Control
- Blood Pressure Response to 400 ng/kg of Angiotensin I ([2]; 80 min after administration): 104 % of Control
- Blood Pressure Response to 400 ng/kg of Angiotensin I ([2]; +1 min after administration): 33 % of Control

- IC50 [1]: 140 nM
- IC50 ([1]; listed as N-[L-1-carboxy-2-(carbopyrrolide)ethyl]-D,L-Ala-Pro): ~100 nM
SMILES: CC(N[C@@H](CC(=O)N1CCCC1)C(=O)O)C(=O)N1CCC[C@H]1C(=O)O (stereo partly drawn) [Example 28, N-[L-1-carboxy-2-(carbopyrrolide)ethyl]-Alanyl-L-Proline]

SMILES: C[C@H](CS)C(=O)N1CCC[C@H]1C(=O)O [SQ14225, D-3-mercapto-2-methylpropanoyl-L-proline]
- activity of fresh aqueous solution on standing [3]: becomes substantially less active upon standing for as little as 30 minutes
- renal biopsy findings ([4]; 13 patients treated with SQ14225, Hoorntje et al.): evidence of immune complex deposition along the glomerular basement membranes
- adverse effects in man ([4]; patients, Gavras et al.): occasional allergic reactions; also recorded: fevers and rashes
